Source: ChEMBL document CHEMBL5360672, “Identification of Novel Dual-Target Estrogen Receptor α Degraders with Tubulin Inhibitory Activity for the Treatment of Endocrine-Resistant Breast Cancer” (J Med Chem, 2023)
pIC50: −log10 of the molar value. Activity calls are given as the source filed them. No cut-off for these calls is given here.

Columns and labels:
[1] = system: MDA-MB-231; test: Antiproliferative activity against ERalpha negative human MDA-MB-231 cells assessed as inhibition of cell proliferation incubated for 72 hrs by CCK8 assay; assay type: functional, cell-based; conditions: MDA-MB-231, 72 h
[2] = Cytotoxicity against human MCF-10A cells assessed as inhibition of cell proliferation incubated for 72 hrs by CCK8 assay; assay type: toxicity, cell-based
[3] = system: T47D; test: Antiproliferative activity against human T47D cells harboring ERalpha Y537S mutant assessed as inhibition of cell proliferation incubated for 72 hrs by CCK8 assay; assay type: functional, cell-based
[4] = Toxicity in Balb/c nude mouse xenografted with human MCF7 cells assessed as effect on heart morphology at 2 to 4 mg/kg, ip administered every other day for 20 days by H&E staining based analysis; assay type: organism-based; conditions: in vivo, 480 h, dose 2-4 mg/kg, time 20 day
[5] = Toxicity in Balb/c nude mouse xenografted with human MCF7 cells assessed as effect on kidney morphology at 2 to 4 mg/kg, ip administered every other day for 20 days by H&E staining based analysis; assay type: organism-based; conditions: in vivo, 480 h, dose 2-4 mg/kg, time 20 day
[6] = system: MCF7; test: Induction of cell cycle arrest in human MCF7 cells assessed as increase in G2/M phase cells at 0 to 8 uM incubated for 48 hrs by flow cytometry analysis (reference value: 20.10%); assay type: functional; conditions: dose 0-8 µM
[7] = system: MCF7; test: Antitumor activity against human MCF7 cells xenografted in Balb/c nude mouse assessed as reduction in Ki67 positive cells at 2 to 4 mg/kg, ip administered every other day for 20 days by immunohistochemistry analysis; assay type: functional, organism-based; conditions: dose 2-4 mg/kg, time 20.0 day
[8] = molecular target: T1, Estrogen receptor (Homo sapiens) (UniProt P03372); test: Induction of ERalpha degradation in human Tamoxifen-resistant LCC2 cells at 0.5 to 5 uM incubated for 6 to 24 hrs by Western blot analysis; assay type: cell-based; conditions: Tamoxifen-resistant LCC2 cell, dose 0.5-5 µM, time 6-24 hrs
T1 sequence (whole entry): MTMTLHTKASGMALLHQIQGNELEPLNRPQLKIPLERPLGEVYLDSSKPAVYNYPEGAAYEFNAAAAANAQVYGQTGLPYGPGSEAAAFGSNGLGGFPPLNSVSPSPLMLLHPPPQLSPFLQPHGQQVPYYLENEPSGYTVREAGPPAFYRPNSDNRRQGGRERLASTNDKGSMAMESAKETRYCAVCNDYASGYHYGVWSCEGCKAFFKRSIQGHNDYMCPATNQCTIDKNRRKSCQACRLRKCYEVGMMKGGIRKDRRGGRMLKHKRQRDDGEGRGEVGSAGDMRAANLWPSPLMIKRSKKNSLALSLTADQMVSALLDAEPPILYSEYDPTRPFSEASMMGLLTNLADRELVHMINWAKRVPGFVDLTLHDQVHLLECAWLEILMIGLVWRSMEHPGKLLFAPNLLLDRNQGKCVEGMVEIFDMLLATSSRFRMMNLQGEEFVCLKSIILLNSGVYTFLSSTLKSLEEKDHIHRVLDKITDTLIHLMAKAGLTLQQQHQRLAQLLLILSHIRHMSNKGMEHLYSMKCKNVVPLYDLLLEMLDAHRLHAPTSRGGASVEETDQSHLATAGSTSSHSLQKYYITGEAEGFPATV

[9] = system: Mus musculus; test: In vivo induction of ERalpha degradation in BALB/c nude mouse xenografted with human MCF7 cells assessed as decrease in ERalpha expression in tumor at 2 to 4 mg/kg, ip administered every other day for 20 days by Western blot analysis; assay type: functional, organism-based; conditions: dose 2-4 mg/kg, time 20.0 day
[10] = Toxicity in Balb/c nude mouse xenografted with human MCF7 cells assessed as effect on liver morphology at 2 to 4 mg/kg, ip administered every other day for 20 days by H&E staining based analysis; assay type: organism-based; conditions: in vivo, 480 h, dose 2-4 mg/kg, time 20 day
[11] = Antitumor activity against human Tamoxifen-resistant LCC2 cells xenografted in Balb/c nude mouse assessed as tumor growth inhibition at 2 mg/kg, ip administered every other day for 20 days relative to control; assay type: functional; conditions: Tamoxifen-resistant LCC2 cell, 480 h, time 20 day, read-out: TGI

`N#C[Se]CCCCCC(=O)Nc1ccc(C2=C(c3ccc(O)cc3)C3CC(S(=O)(=O)N(CC(F)(F)F)c4ccccc4F)C2O3)cc1` (stereo unspecified) showed a pIC50 [1] of 5.43, an IC50 at 72 h [2] of 15.8 µM and a pIC50 [3] of 5.86. The Activity [4] was “Non-Toxic”, the Activity [5] was “Non-Toxic” and the Activity [6] was 40.88%. The Activity [7] was “Active”, the Activity [8] was “Active” and the Activity [9] was “Active”. For the same compound, the Activity [10] was “Non-Toxic” and the inhibition in vivo at 2 mg/kg [11] was 51.4%.
